Assay results from patent US11400058B2, “Intravenous formulations of coenzyme Q10 (CoQ10) and methods of use thereof” (Berg LLC, priority 2010, dated 2022).
Marks after values point to notes of the source that are not given here.

Experiment: 4-week repeat-dose toxicology study in rats with 2-week recovery (Study 20000328)
[1] = 125 mg/kg M, end of dosing, animals affected
[2] = 125 mg/kg M, end of dosing, animals of 10
[3] = 125 mg/kg M, end of recovery, animals of 5
[4] = 250 mg/kg F, end of dosing, animals of 10

SMILES: COC1=C(OC)C(=O)C(C/C=C(\C)CC/C=C(\C)CC/C=C(\C)CC/C=C(\C)CC/C=C(\C)CC/C=C(\C)CC/C=C(\C)CC/C=C(\C)CC/C=C(\C)CCC=C(C)C)=C(C)C1=O [CoQ10, Coenzyme Q10]
- Erythrocytes (125 mg/kg M, end of dosing): 7.59* 10^6/cmm
- Food Consumption, percent difference from controls (125 mg/kg M, end of dosing): −9.2* %
- GGT (125 mg/kg M, end of dosing): 0.09 IU/L
- Hematocrit (125 mg/kg M, end of dosing): 41.6* %
- Hemoglobin (125 mg/kg M, end of dosing): 14.3 g/dL
- Leukocytes (125 mg/kg M, end of dosing): 11.03 10^3/cmm
- Liver weight (absolute), percent difference from controls (125 mg/kg M, end of dosing): −7.2%
- Lymphocytes (125 mg/kg M, end of dosing): 8.70* 10^3/cmm
- Neutrophils (125 mg/kg M, end of dosing): 1.71 10^3/cmm
- Spleen weight (absolute), percent difference from controls (125 mg/kg M, end of dosing): −23.4%
- Injection Site Mononuclear Cell Infiltration [1]: 1
- Injection Site Mononuclear Cell Infiltration, Marked [1]: 1
- Injection Site Mononuclear Cell Infiltration, Mild [1]: 0
- Injection Site Mononuclear Cell Infiltration, Minimal [1]: 0
- Injection Site Mononuclear Cell Infiltration, Moderate [1]: 0
- Bone Marrow, Sternum Hyperplasia [2]: 2
- Bone Marrow, Sternum Hyperplasia, Mild [2]: 0
- Bone Marrow, Sternum Hyperplasia, Minimal [2]: 2
- Gross Pathology: Enlarged Pancreatic Lymph Nodes [2]: 1
- Gross Pathology: Pale Adrenal [2]: 0
- Gross Pathology: Pale Liver [2]: 9
- Gross Pathology: Pale Lymph Nodes [2]: 4
- Gross Pathology: Pale Pituitary [2]: 0
- Gross Pathology: Pale SQ Skin [2]: 1
- Liver Focal Necrosis [2]: 0
- Liver Focal Necrosis, Minimal [2]: 0
- Liver Histiocytic Infiltration [2]: 6
- Liver Histiocytic Infiltration, Mild [2]: 3
- Liver Histiocytic Infiltration, Minimal [2]: 3
- Liver Histiocytic Infiltration, Moderate [2]: 0
- Liver Vacuolation [2]: 8
- Liver Vacuolation, Mild [2]: 4
- Liver Vacuolation, Minimal [2]: 4
- Lymph Node, Man. Histiocytic Infiltration [2]: 7
- Lymph Node, Man. Histiocytic Infiltration, Mild [2]: 4
- Lymph Node, Man. Histiocytic Infiltration, Minimal [2]: 3
- Lymph Node, Man. Histiocytic Infiltration, Moderate [2]: 0
- Lymph Node, Mes. Histiocytic Infiltration [2]: 10
- Lymph Node, Mes. Histiocytic Infiltration, Mild [2]: 6
- Lymph Node, Mes. Histiocytic Infiltration, Minimal [2]: 4
- Lymph Node, Mes. Histiocytic Infiltration, Moderate [2]: 0
- Skin, Dermis Histiocytic Infiltration [2]: 1
- Skin, Dermis Histiocytic Infiltration, Marked [2]: 1
- Skin, Dermis Histiocytic Infiltration, Mild [2]: 0
- Skin, Dermis Histiocytic Infiltration, Moderate [2]: 0
- Skin, SQ Histiocytic Infiltration [2]: 0
- Skin, SQ Histiocytic Infiltration, Mild [2]: 0
- Spleen Histiocytic Infiltration [2]: 8
- Spleen Histiocytic Infiltration, Marked [2]: 0
- Spleen Histiocytic Infiltration, Mild [2]: 5
- Spleen Histiocytic Infiltration, Moderate [2]: 3
- ALT (125 mg/kg M, end of recovery): 27 IU/L
- APPT (125 mg/kg M, end of recovery): 15.9* seconds
- AST (125 mg/kg M, end of recovery): 94 IU/L
- Body Weight, percent difference from controls (125 mg/kg M, end of recovery): −2.2%
- Food Consumption, percent difference from controls (125 mg/kg M, end of recovery): +1.2%
- GGT (125 mg/kg M, end of recovery): 0.00 IU/L
- Liver weight (absolute), percent difference from controls (125 mg/kg M, end of recovery): −2.5%
- Spleen weight (absolute), percent difference from controls (125 mg/kg M, end of recovery): +5.9%
- Adrenal Gland Vacuolation [3]: 5
- Adrenal Gland Vacuolation, Marked [3]: 0
- Adrenal Gland Vacuolation, Mild [3]: 2
- Adrenal Gland Vacuolation, Minimal [3]: 0
- Adrenal Gland Vacuolation, Moderate [3]: 3
- Gross Pathology: Enlarged Spleen [3]: 1
- Gross Pathology: Pale Iliac Lymph Node [3]: 2
- Gross Pathology: Pale Liver [3]: 5
- Gross Pathology: Pale Pancreatic Lymph Node [3]: 2
- Liver Focal Necrosis [3]: 3
- Liver Focal Necrosis, Mild [3]: 1
- Liver Focal Necrosis, Minimal [3]: 2
- Liver Histiocytic Infiltration [3]: 5
- Liver Histiocytic Infiltration, Mild [3]: 1
- Liver Histiocytic Infiltration, Minimal [3]: 4
- Liver Histiocytic Infiltration, Moderate [3]: 0
- Liver Multifocal Necrosis [3]: 0
- Liver Multifocal Necrosis, Mild [3]: 0
- Liver Multifocal Necrosis, Moderate [3]: 0
- Liver Vacuolation [3]: 5
- Liver Vacuolation, Mild [3]: 4
- Liver Vacuolation, Minimal [3]: 1
- Liver Vacuolation, Moderate [3]: 0
- Lymph Node, Man. Histiocytic Infiltration [3]: 5
- Lymph Node, Man. Histiocytic Infiltration, Mild [3]: 2
- Lymph Node, Man. Histiocytic Infiltration, Minimal [3]: 3
- Lymph Node, Man. Histiocytic Infiltration, Moderate [3]: 0
- Lymph Node, Mes. Histiocytic Infiltration [3]: 5
- Lymph Node, Mes. Histiocytic Infiltration, Mild [3]: 1
- Lymph Node, Mes. Histiocytic Infiltration, Minimal [3]: 3
- Spleen Histiocytic Infiltration [3]: 3
- Spleen Histiocytic Infiltration, Marked [3]: 0
- Spleen Histiocytic Infiltration, Mild [3]: 1
- Spleen Histiocytic Infiltration, Minimal [3]: 2
- Spleen Histiocytic Infiltration, Moderate [3]: 0
- Died or Sacrificed Moribund (250 mg/kg F, animals of 15): 0
- ALT (250 mg/kg F, end of dosing): 22 IU/L
- APPT (250 mg/kg F, end of dosing): 14.5* seconds
- AST (250 mg/kg F, end of dosing): 88 IU/L
- Body Weight, percent difference from controls (250 mg/kg F, end of dosing): −8.9* %
- Eosinophils (250 mg/kg F, end of dosing): 0.10 10^3/cmm
- Erythrocytes (250 mg/kg F, end of dosing): 6.12 10^6/cmm
- Food Consumption, percent difference from controls (250 mg/kg F, end of dosing): −18.3* %
- GGT (250 mg/kg F, end of dosing): 0.25 IU/L
- Hematocrit (250 mg/kg F, end of dosing): 39.2* %
- Hemoglobin (250 mg/kg F, end of dosing): 13.2 g/dL
- Leukocytes (250 mg/kg F, end of dosing): 13.15* 10^3/cmm
- Liver weight (absolute), percent difference from controls (250 mg/kg F, end of dosing): +14.5* %
- Lymphocytes (250 mg/kg F, end of dosing): 10.50* 10^3/cmm
- Neutrophils (250 mg/kg F, end of dosing): 1.97* 10^3/cmm
- Spleen weight (absolute), percent difference from controls (250 mg/kg F, end of dosing): +51.0* %
- Adrenal Gland Vacuolation [4]: 10
- Adrenal Gland Vacuolation, Mild [4]: 3
- Adrenal Gland Vacuolation, Minimal [4]: 0
- Adrenal Gland Vacuolation, Moderate [4]: 7
- Bone Marrow, Sternum Hyperplasia [4]: 0
- Bone Marrow, Sternum Hyperplasia, Mild [4]: 0
- Bone Marrow, Sternum Hyperplasia, Minimal [4]: 0
- Gross Pathology: Enlarged Pancreatic Lymph Nodes [4]: 1
- Gross Pathology: Pale Adrenal [4]: 2
- Gross Pathology: Pale Liver [4]: 10
- Gross Pathology: Pale Lymph Nodes [4]: 7
- Gross Pathology: Pale Ovaries [4]: 9
- Gross Pathology: Pale Pituitary [4]: 0
- Gross Pathology: Pale SQ Skin [4]: 4
- Injection Site Mononuclear Cell Infiltration [4]: 10
- Injection Site Mononuclear Cell Infiltration, Marked [4]: 2
- Injection Site Mononuclear Cell Infiltration, Mild [4]: 1
- Injection Site Mononuclear Cell Infiltration, Minimal [4]: 0
- Injection Site Mononuclear Cell Infiltration, Moderate [4]: 7
- Liver Focal Necrosis [4]: 0
- Liver Focal Necrosis, Minimal [4]: 0
- Liver Histiocytic Infiltration [4]: 9
- Liver Histiocytic Infiltration, Mild [4]: 5
- Liver Histiocytic Infiltration, Minimal [4]: 4
- Liver Histiocytic Infiltration, Moderate [4]: 0
- Liver Vacuolation [4]: 10
- Liver Vacuolation, Mild [4]: 10
- Liver Vacuolation, Minimal [4]: 0
- Lymph Node, Man. Histiocytic Infiltration [4]: 9
- Lymph Node, Man. Histiocytic Infiltration, Mild [4]: 1
- Lymph Node, Man. Histiocytic Infiltration, Minimal [4]: 7
- Lymph Node, Man. Histiocytic Infiltration, Moderate [4]: 1
- Lymph Node, Mes. Histiocytic Infiltration [4]: 9
- Lymph Node, Mes. Histiocytic Infiltration, Mild [4]: 4
- Lymph Node, Mes. Histiocytic Infiltration, Minimal [4]: 5
- Lymph Node, Mes. Histiocytic Infiltration, Moderate [4]: 0
- Ovary Histiocytic Infiltration [4]: 10
- Ovary Histiocytic Infiltration, Mild [4]: 6
- Ovary Histiocytic Infiltration, Minimal [4]: 0
- Ovary Histiocytic Infiltration, Moderate [4]: 4
- Skin, Dermis Histiocytic Infiltration [4]: 2
- Skin, Dermis Histiocytic Infiltration, Marked [4]: 0
- Skin, Dermis Histiocytic Infiltration, Mild [4]: 0
- Skin, Dermis Histiocytic Infiltration, Moderate [4]: 2
- Skin, SQ Histiocytic Infiltration [4]: 0
- Skin, SQ Histiocytic Infiltration, Mild [4]: 0
